Key:
Met = biological target: T1, Met (Homo sapiens, UniProt P08581); test: LanthaScreen Eu kinase binding assay, Met; details: Tracer 236, read-out: cMet kinase binding activity (Kd)
T1 construct: purchased Life Technologies

Mer = biological target: T2, Mer (Homo sapiens, UniProt Q12866); test: LanthaScreen Eu kinase binding assay, Mer; details: Tracer 236
T2 construct: purchased Life Technologies
T2 sequence (Q12866 21-999): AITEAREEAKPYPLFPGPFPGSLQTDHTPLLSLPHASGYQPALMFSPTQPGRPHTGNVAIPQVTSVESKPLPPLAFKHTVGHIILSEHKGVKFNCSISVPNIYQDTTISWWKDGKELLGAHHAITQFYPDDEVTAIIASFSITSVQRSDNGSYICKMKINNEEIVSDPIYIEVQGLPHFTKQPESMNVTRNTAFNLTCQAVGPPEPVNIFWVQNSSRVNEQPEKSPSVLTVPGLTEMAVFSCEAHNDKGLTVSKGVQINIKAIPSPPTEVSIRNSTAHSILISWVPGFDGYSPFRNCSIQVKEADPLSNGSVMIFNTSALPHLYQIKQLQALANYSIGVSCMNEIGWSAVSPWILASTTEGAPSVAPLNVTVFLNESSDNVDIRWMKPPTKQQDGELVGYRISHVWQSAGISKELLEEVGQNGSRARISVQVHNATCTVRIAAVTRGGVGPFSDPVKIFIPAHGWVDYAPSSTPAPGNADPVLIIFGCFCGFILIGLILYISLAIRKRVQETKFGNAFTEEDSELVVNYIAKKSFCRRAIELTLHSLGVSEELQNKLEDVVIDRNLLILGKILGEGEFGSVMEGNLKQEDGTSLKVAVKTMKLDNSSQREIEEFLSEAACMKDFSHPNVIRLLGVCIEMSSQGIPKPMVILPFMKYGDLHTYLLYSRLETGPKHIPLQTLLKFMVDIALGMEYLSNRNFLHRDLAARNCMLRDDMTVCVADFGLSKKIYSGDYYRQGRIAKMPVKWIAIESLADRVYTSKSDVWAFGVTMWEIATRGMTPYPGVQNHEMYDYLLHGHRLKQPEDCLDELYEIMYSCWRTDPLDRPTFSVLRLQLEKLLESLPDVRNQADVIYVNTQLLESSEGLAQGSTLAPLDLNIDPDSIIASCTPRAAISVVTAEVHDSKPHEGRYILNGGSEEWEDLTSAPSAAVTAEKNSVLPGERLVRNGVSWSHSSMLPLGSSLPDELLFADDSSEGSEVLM

Axl = biological target: T3, Axl (Homo sapiens, UniProt P30530); test: LanthaScreen Eu kinase binding assay, Axl; details: Tracer 236
T3 construct: purchased Life Technologies
T3 sequence (P30530 26-894): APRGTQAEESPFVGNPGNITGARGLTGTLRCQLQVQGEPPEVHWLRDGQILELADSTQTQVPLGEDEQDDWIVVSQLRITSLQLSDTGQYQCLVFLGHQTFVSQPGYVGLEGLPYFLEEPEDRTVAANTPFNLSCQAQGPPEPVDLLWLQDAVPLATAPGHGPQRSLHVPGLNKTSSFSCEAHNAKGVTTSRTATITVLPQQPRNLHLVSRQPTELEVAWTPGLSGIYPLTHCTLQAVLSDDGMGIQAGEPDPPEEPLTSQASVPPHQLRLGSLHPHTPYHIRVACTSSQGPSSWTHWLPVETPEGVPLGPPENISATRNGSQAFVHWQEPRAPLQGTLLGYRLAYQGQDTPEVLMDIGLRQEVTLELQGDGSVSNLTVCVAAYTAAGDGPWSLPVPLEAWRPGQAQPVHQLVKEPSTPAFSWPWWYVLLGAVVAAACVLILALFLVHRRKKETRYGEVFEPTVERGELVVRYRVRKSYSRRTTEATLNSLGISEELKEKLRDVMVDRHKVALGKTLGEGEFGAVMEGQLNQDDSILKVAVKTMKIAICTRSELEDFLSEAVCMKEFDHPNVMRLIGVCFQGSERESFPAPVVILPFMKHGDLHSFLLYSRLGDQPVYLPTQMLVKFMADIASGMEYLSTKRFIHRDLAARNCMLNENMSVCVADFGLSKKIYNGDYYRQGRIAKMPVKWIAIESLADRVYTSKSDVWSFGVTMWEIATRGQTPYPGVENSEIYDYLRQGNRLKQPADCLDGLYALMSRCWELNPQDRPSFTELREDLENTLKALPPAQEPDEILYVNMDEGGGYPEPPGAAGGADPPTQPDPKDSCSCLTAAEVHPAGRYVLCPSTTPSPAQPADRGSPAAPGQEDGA

T1 sequence (P08581 25-1390): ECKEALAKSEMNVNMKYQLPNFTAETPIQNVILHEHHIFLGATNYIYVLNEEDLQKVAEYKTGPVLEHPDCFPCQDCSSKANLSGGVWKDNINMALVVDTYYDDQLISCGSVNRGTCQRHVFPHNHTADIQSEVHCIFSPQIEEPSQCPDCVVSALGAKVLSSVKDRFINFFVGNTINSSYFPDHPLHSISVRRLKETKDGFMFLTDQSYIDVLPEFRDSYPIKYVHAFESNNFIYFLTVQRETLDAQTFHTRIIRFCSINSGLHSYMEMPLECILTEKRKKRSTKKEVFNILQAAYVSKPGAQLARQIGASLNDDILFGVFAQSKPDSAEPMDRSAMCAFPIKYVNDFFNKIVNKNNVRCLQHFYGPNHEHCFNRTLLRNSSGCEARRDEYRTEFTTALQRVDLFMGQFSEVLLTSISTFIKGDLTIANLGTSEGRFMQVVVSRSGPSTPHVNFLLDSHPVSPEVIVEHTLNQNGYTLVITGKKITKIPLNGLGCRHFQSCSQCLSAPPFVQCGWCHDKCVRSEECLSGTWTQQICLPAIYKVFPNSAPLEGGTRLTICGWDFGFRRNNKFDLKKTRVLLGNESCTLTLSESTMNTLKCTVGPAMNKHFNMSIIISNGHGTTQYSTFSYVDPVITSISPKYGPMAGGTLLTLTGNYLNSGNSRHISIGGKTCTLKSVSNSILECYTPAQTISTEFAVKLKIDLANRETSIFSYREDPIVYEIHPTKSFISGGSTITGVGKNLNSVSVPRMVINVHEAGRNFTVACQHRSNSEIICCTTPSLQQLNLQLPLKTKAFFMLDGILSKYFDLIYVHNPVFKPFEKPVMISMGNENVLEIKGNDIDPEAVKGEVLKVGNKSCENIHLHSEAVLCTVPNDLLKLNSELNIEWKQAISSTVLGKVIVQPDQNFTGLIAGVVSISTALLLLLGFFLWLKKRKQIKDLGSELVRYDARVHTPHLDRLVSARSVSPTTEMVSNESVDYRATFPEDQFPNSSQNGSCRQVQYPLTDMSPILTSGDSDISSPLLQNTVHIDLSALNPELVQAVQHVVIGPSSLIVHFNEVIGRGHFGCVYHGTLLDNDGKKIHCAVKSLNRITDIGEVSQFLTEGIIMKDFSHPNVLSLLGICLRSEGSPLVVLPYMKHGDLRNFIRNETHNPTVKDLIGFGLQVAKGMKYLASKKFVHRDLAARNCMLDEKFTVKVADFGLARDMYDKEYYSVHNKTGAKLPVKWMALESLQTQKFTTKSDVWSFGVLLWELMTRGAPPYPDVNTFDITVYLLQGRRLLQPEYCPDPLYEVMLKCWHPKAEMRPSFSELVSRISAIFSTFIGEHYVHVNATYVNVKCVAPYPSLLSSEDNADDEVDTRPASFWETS

Row | Kd (Met) [nM] | Kd (Mer) [nM] | Kd (Axl) [nM] | SMILES
1 | 100 to 1000 | < 100 | < 100 | CCOc1cn(-c2ccc(N)nc2)nc1C(=O)Nc1ccc(Oc2ccnc3cc(OC)c(OC)cc23)cn1 [Compound 6]
2 | < 100 | < 100 | ≥ 1000 | CCOc1cn(-c2ccnc(O)c2)nc1C(=O)Nc1ccc(Oc2ccnc3cc(OC)c(OC)cc23)cn1 [Compound 7]
3 | < 100 | < 100 | < 100 | CCOc1cn(-c2cn[nH]c2)nc1C(=O)Nc1ccc(Oc2ccnc3cc(OC)c(OC)cc23)cn1 [Compound 8]
4 | < 100 | < 100 | < 100 | CCOc1cn(-c2cnc(N)nc2)nc1C(=O)Nc1ccc(Oc2ccnc3cc(OC)c(OC)cc23)cn1 [Compound 10]
5 | 100 to 1000 | < 100 | < 100 | CCOc1cn(-c2cncn2C)nc1C(=O)Nc1ccc(Oc2ccnc3cc(OC)c(OC)cc23)cn1 [Compound 11]
6 | 100 to 1000 | < 100 | < 100 | CCOc1cn(-c2nccs2)nc1C(=O)Nc1ccc(Oc2ccnc3cc(OC)c(OC)cc23)cn1 [Compound 12]
7 | < 100 | < 100 | < 100 | CCOc1cn(-c2cscn2)nc1C(=O)Nc1ccc(Oc2ccnc3cc(OC)c(OC)cc23)cn1 [Compound 13]
8 | < 100 | < 100 | < 100 | CCOc1cn(-c2cncs2)nc1C(=O)Nc1ccc(Oc2ccnc3cc(OC)c(OC)cc23)cn1 [Compound 14]
9 | 100 to 1000 | < 100 | < 100 | CCOc1cnn(-c2cncs2)c1C(=O)Nc1ccc(Oc2ccnc3cc(OC)c(OC)cc23)cn1 [Compound 16]
10 | ≥ 1000 | < 100 | < 100 | CCOc1cn(-c2cnc(CO)nc2)nc1C(=O)Nc1ccc(Oc2ccnc3cc(OC)c(OC)cc23)cn1 [Compound 96]
11 | ≥ 1000 | < 100 | < 100 | CCOc1cn(-c2ccc(F)cc2C)nc1C(=O)Nc1ccc(Oc2ccnc3cc(OC)c(OC)cc23)nn1 [Compound 97]
12 | ≥ 1000 | < 100 | < 100 | CCOc1cn(-c2ccc(C(F)(F)F)cc2C)nc1C(=O)Nc1ccc(Oc2ccnc3cc(OC)c(OC)cc23)cn1 [Compound 99]
13 | 100 to 1000 | < 100 | < 100 | CCOc1cn(-c2ccc(C)cc2F)nc1C(=O)Nc1ccc(Oc2ccnc3cc(OC)c(OC)cc23)cn1 [Compound 100]
14 | < 100 | < 100 | < 100 | CCOc1cn(-c2ccc(Cl)cc2C(F)(F)F)nc1C(=O)Nc1ccc(Oc2ccnc3cc(OC)c(OC)cc23)cn1 [Compound 101]
15 | ≥ 1000 | 100 to 1000 | < 100 | CCOc1cnn(-c2ccc(C(F)(F)F)cc2C)c1C(=O)Nc1ccc(Oc2ccnc3cc(OC)c(OC)cc23)cn1 [Compound 102]
16 | < 100 | < 100 | < 100 | CCOc1cn(-c2ccc(F)cc2C(F)(F)F)nc1C(=O)Nc1ccc(Oc2ccnc3cc(OC)c(OC)cc23)cn1 [Compound 104]
17 | < 100 | < 100 | < 100 | CCOc1cn(-c2ccc(C(F)(F)F)cc2C(F)(F)F)nc1C(=O)Nc1ccc(Oc2ccnc3cc(OC)c(OC)cc23)cn1 [Compound 105]
18 | < 100 | < 100 | < 100 | CCOc1cn(-c2ccc(Cl)cc2F)nc1C(=O)Nc1ccc(Oc2ccnc3cc(OC)c(OC)cc23)cn1 [Compound 106]
19 | < 100 | < 100 | < 100 | CCOc1cn(-c2ccc(F)cc2F)nc1C(=O)Nc1ccc(Oc2ccnc3cc(OC)c(OC)cc23)cn1 [Compound 107]

Row | Kd (Met) [nM] | Kd (Mer) [nM] | Kd (Axl) [nM] | SMILES
20 | ≥ 1000 | < 100 | < 100 | CCOc1cn(-c2ccc(Cl)cc2Cl)nc1C(=O)Nc1ccc(Oc2ccnc3cc(OC)c(OC)cc23)cn1 [Compound 108]
21 | < 100 | 100 to 1000 | < 100 | CCOc1cnn(-c2ccc(C(F)(F)F)cc2C(F)(F)F)c1C(=O)Nc1ccc(Oc2ccnc3cc(OC)c(OC)cc23)cn1 [Compound 110]
22 | < 100 | < 100 | < 100 | CCOc1cn(-c2ccc(Cl)cc2CC)nc1C(=O)Nc1ccc(Oc2ccnc3cc(OC)c(OC)cc23)cn1 [Compound 111]
23 | < 100 | < 100 | < 100 | CCOc1cn(-c2ccc(F)cc2CC)nc1C(=O)Nc1ccc(Oc2ccnc3cc(OC)c(OC)cc23)cn1 [Compound 112]
24 | 100 to 1000 | < 100 | < 100 | CCOc1cn(-c2ccc(OC(F)(F)F)cc2C)nc1C(=O)Nc1ccc(Oc2ccnc3cc(OC)c(OC)cc23)cn1 [Compound 113]
25 | < 100 | < 100 | < 100 | CCOc1cn(-c2ccc(C(F)(F)F)cc2F)nc1C(=O)Nc1ccc(Oc2ccnc3cc(OC)c(OC)cc23)cn1 [Compound 114]
26 | < 100 | < 100 | < 100 | CCOc1cn(-c2ccc(OC(F)(F)F)cc2Cl)nc1C(=O)Nc1ccc(Oc2ccnc3cc(OC)c(OC)cc23)cn1 [Compound 115]
27 | 100 to 1000 | < 100 | < 100 | CCOc1cn(-c2ccc(C(C)C)cc2)nc1C(=O)Nc1ccc(Oc2ccnc3cc(OC)c(OC)cc23)cn1 [Compound 116]
28 | < 100 | < 100 | < 100 | CCOc1cn(-c2c(C)cc(C)cc2C)nc1C(=O)Nc1ccc(Oc2ccnc3cc(OC)c(OC)cc23)cn1 [Compound 117]
29 | 100 to 1000 | < 100 | < 100 | CCOc1cn(-c2ccc(OC(F)(F)F)cc2F)nc1C(=O)Nc1ccc(Oc2ccnc3cc(OC)c(OC)cc23)cn1 [Compound 120]
30 | < 100 | < 100 | < 100 | CCOc1cn(-c2ccc(F)c(CN(C)C)c2)nc1C(=O)Nc1ccc(Oc2ccnc3cc(OC)c(OC)cc23)cn1 [Compound 124]
31 | < 100 | < 100 | < 100 | CCOc1cn(-c2ccc(F)cc2C(C)C)nc1C(=O)Nc1ccc(Oc2ccnc3cc(OC)c(OC)cc23)cn1 [Compound 125]
32 | < 100 | < 100 | < 100 | CCOc1cn(-c2ccc(Cl)c(CN(C)C)c2)nc1C(=O)Nc1ccc(Oc2ccnc3cc(OC)c(OC)cc23)cn1 [Compound 126]
33 | < 100 | < 100 | < 100 | CCOc1cn(-c2ccc(C(C)C)cc2F)nc1C(=O)Nc1ccc(Oc2ccnc3cc(OC)c(OC)cc23)cn1 [Compound 127]
34 | < 100 | < 100 | < 100 | CCOc1cn(-c2ccc(F)c(CO)c2)nc1C(=O)Nc1ccc(Oc2ccnc3cc(OC)c(OC)cc23)cn1 [Compound 128]
35 | < 100 | < 100 | < 100 | CCOc1cn(-c2ccc(Cl)c(C(=O)N(C)C)c2)nc1C(=O)Nc1ccc(Oc2ccnc3cc(OC)c(OC)cc23)cn1 [Compound 129]
36 | < 100 | < 100 | < 100 | CCOc1cnn(-c2ccc(Cl)c(CN(C)C)c2)c1C(=O)Nc1ccc(Oc2ccnc3cc(OC)c(OC)cc23)cn1 [Compound 130]
37 | < 100 | < 100 | < 100 | CCOc1cn(-c2c(C)ccnc2C)nc1C(=O)Nc1ccc(Oc2ccnc3cc(OC)c(OC)cc23)cn1 [Compound 132]

— patent US10934274B2, “Quinoline derivatives as TAM RTK inhibitors” (Qurient Co., Ltd., priority 2015, dated 2021)
